Key:
A2C12 = experiment: Western blot, semi-quantitative protein expression; assay type: cell-based, mouse
Method: (§1) For the Western Blot analysis, cells were rinsed and lysed as previously described. An amount of 25 µg protein was used for SDS-PAGE. Antibodies for c-Abl (sc-131), Actin (sc-1616), Cdc2-p34 (sc-8395), EPS15 (sc-1840), FAK (sc-558), c-Fos (sc-52), p38 (sc-7972), p53 (sc-6243) and STAT5 (sc-835x) were obtained from Santa Cruz (Santa Cruz Biotechnology, Heidelberg, Germany), while c-Src (2109) and phospho-Src Y416 (2101) were purchased from Cell Signaling (Cell Signaling Technology, Frankfurt a. M., Germany). The EGFR (06-847), phospho-EGFR Y992 (07-821) and phospho-EGFR Y1045 (04-284) stem from Upstate (Upstate, Schwalbach, Germany) and the hnRNP-K (A300-676A) from Bethyl Labs (Bethyl Laboratories, Montgomery, Texas, USA). Finally p73 (IMG-246) was supplied by Imgenex (Imgenex, Hamburg, Germany). Depending on the primary antibody the secondary antibodies were either horseradish peroxidase-conjugated anti-mouse (AP 160P), anti-rabbit (AP 132P) or anti-sheep (AP 147P) (Chemicon, Schwalbach, Germany).
(§2) Semi-quantitative analysis were carried out with Kodak 1D Image Analysis Software in reference to the vehicle treated control cells (see supplementary table S7).

BetaD5 = experiment: Western blot, semi-quantitative protein expression; assay type: cell-based, mouse
Method: as §1, §2

GammaA3 [1] = experiment: Western blot, semi-quantitative protein expression; assay type: cell-based, mouse
Method: as §1, §2

GammaD12 = experiment: Western blot, semi-quantitative protein expression; assay type: cell-based, mouse
Method: as §1, §2

HepG2 = experiment: Western blot, semi-quantitative protein expression; assay type: cell-based, human
Method: as §1, §2

GammaA3 [2] = experiment: Whole genome expression analysis (Affymetrix microarray); assay type: cell-based, mouse; details: IC50 concentration, 96 h
Method: The cells were harvested and RNA was isolated using RNeasy Mini Kit (Qiagen, Hilden, Germany) according to the instructions of the manufacturer. The isolated RNA (250 ng) was processed further using standard protocols as described recently with the exception of the 3′ IVT Express Kit (Affymetrix, High Wycombe, UK) that was utilized according to instructions. Quality control of cRNA was done with the Agilent 2100 Bioanalyzer (Agilent Tech according to manufacturer's protocols. Following fragmentation, cRNA of each sample was hybridized to Affymetrix GeneChip® Mouse Genome 430 2.0 or Human Genome U133 Plus 2.0 and scanned with an Affymetrix 3000 7G scanner.
The resultant data was normalized by Probe Logarithmic Intensity Error Estimation (PLIER) algorithm. Statistical analysis was carried out with the ArrayTrack software (National Center for Toxicological Research/FDA, Jefferson, AR, USA) using SAM algorithm.

For `CSc1nc(NCCc2ccc(Cl)cc2)c2cnn(CC(Cl)c3ccccc3)c2n1` (stereo not shown) [Si57], the Actin protein expression (A2C12) was 97, the “EGFR Y992-p protein expression” value (A2C12) was 117 and the “EGFR Y1045-p protein expression” value (A2C12) was 29. For the same compound, the EGFR protein expression (A2C12) was 66, the EPS15 protein expression (A2C12) was 89 and the FAK protein expression (A2C12) was 47. It also gave an STAT5 protein expression (A2C12) of 104, a c-Abl protein expression (A2C12) of 49 and a c-Fos protein expression (A2C12) of 82. For the same compound, the c-Src protein expression (A2C12) was 92, the hnRNP-K protein expression (A2C12) was 104 and the p38 protein expression (A2C12) was 59. The p53 protein expression (A2C12) was 60, the p73 protein expression (A2C12) was 40 and the Actin protein expression (BetaD5) was 98. The “EGFR Y992-p protein expression” value (BetaD5) was 116, the “EGFR Y1045-p protein expression” value (BetaD5) was 65 and the EGFR protein expression (BetaD5) was 61. The EPS15 protein expression (BetaD5) was 781, the FAK protein expression (BetaD5) was 98 and the STAT5 protein expression (BetaD5) was 192. The c-Abl protein expression (BetaD5) was 89, the c-Fos protein expression (BetaD5) was 58 and the “c-Src Y416-p protein expression” value (BetaD5) was 19. It also gave a c-Src protein expression (BetaD5) of 153, a hnRNP-K protein expression (BetaD5) of 126 and a p38 protein expression (BetaD5) of 76. For the same compound, the p53 protein expression (BetaD5) was 248, the Actin protein expression (GammaA3 [1]) was 105 and the “EGFR Y992-p protein expression” value (GammaA3 [1]) was 90. The “EGFR Y1045-p protein expression” value (GammaA3 [1]) was 15, the EGFR protein expression (GammaA3 [1]) was 39 and the EPS15 protein expression (GammaA3 [1]) was 102. For the same compound, the FAK protein expression (GammaA3 [1]) was 101, the STAT5 protein expression (GammaA3 [1]) was 93 and the c-Abl protein expression (GammaA3 [1]) was 62. The c-Fos protein expression (GammaA3 [1]) was 79, the “c-Src Y416-p protein expression” value (GammaA3 [1]) was 256 and the c-Src protein expression (GammaA3 [1]) was 104. The hnRNP-K protein expression (GammaA3 [1]) was 93, the p38 protein expression (GammaA3 [1]) was 38 and the p53 protein expression (GammaA3 [1]) was 54. For the same compound, the Actin protein expression (GammaD12) was 106, the “EGFR Y992-p protein expression” value (GammaD12) was 62 and the “EGFR Y1045-p protein expression” value (GammaD12) was 96. It also gave an EGFR protein expression (GammaD12) of 89, an EPS15 protein expression (GammaD12) of 135 and an FAK protein expression (GammaD12) of 106. It also gave an STAT5 protein expression (GammaD12) of 110, a c-Abl protein expression (GammaD12) of 212 and a c-Fos protein expression (GammaD12) of 70. For the same compound, the “c-Src Y416-p protein expression” value (GammaD12) was 90, the c-Src protein expression (GammaD12) was 103 and the hnRNP-K protein expression (GammaD12) was 100. For the same compound, the p38 protein expression (GammaD12) was 29 and the p53 protein expression (GammaD12) was 58.
With `Clc1cccc(Nc2nc(SC3CCCC3)nc3c2cnn3CC(Cl)c2ccccc2)c1` (stereo not shown) [Si135] the Actin protein expression (A2C12) was 88, the “EGFR Y992-p protein expression” value (A2C12) was 79 and the “EGFR Y1045-p protein expression” value (A2C12) was 69. For the same compound, the EGFR protein expression (A2C12) was 30, the EPS15 protein expression (A2C12) was 83 and the FAK protein expression (A2C12) was 71. The STAT5 protein expression (A2C12) was 95, the c-Abl protein expression (A2C12) was 64 and the c-Fos protein expression (A2C12) was 52. The c-Src protein expression (A2C12) was 95, the hnRNP-K protein expression (A2C12) was 87 and the p38 protein expression (A2C12) was 33. The p53 protein expression (A2C12) was 58, the p73 protein expression (A2C12) was 43 and the Actin protein expression (BetaD5) was 92. For the same compound, the “EGFR Y992-p protein expression” value (BetaD5) was 68, the “EGFR Y1045-p protein expression” value (BetaD5) was 148 and the EGFR protein expression (BetaD5) was 116. The EPS15 protein expression (BetaD5) was 759, the FAK protein expression (BetaD5) was 114 and the STAT5 protein expression (BetaD5) was 163. The c-Abl protein expression (BetaD5) was 101, the c-Fos protein expression (BetaD5) was 98 and the “c-Src Y416-p protein expression” value (BetaD5) was 20. It also gave a c-Src protein expression (BetaD5) of 135, a hnRNP-K protein expression (BetaD5) of 115 and a p38 protein expression (BetaD5) of 56. The p53 protein expression (BetaD5) was 119, the Actin protein expression (GammaA3 [1]) was 101 and the “EGFR Y992-p protein expression” value (GammaA3 [1]) was 70. For the same compound, the “EGFR Y1045-p protein expression” value (GammaA3 [1]) was 31, the EGFR protein expression (GammaA3 [1]) was 25 and the EPS15 protein expression (GammaA3 [1]) was 102. It also gave an FAK protein expression (GammaA3 [1]) of 104, an STAT5 protein expression (GammaA3 [1]) of 80 and a c-Abl protein expression (GammaA3 [1]) of 65. For the same compound, the c-Fos protein expression (GammaA3 [1]) was 112, the “c-Src Y416-p protein expression” value (GammaA3 [1]) was 216 and the c-Src protein expression (GammaA3 [1]) was 107. It also gave a hnRNP-K protein expression (GammaA3 [1]) of 90, a p38 protein expression (GammaA3 [1]) of 48 and a p53 protein expression (GammaA3 [1]) of 78. The Actin protein expression (GammaD12) was 110, the “EGFR Y992-p protein expression” value (GammaD12) was 181 and the “EGFR Y1045-p protein expression” value (GammaD12) was 132. For the same compound, the EGFR protein expression (GammaD12) was 95, the EPS15 protein expression (GammaD12) was 149 and the FAK protein expression (GammaD12) was 117. The STAT5 protein expression (GammaD12) was 118, the c-Abl protein expression (GammaD12) was 152 and the c-Fos protein expression (GammaD12) was 103. The “c-Src Y416-p protein expression” value (GammaD12) was 140, the c-Src protein expression (GammaD12) was 89 and the hnRNP-K protein expression (GammaD12) was 75. It also gave a p38 protein expression (GammaD12) of 18, a p53 protein expression (GammaD12) of 108 and an Actin protein expression (HepG2) of 68. The Cdc2-p34 protein expression (HepG2) was 9, the “EGFR Y992-p protein expression” value (HepG2) was 8 and the “EGFR Y1045-p protein expression” value (HepG2) was 28. For the same compound, the EGFR protein expression (HepG2) was 261, the EPS15 protein expression (HepG2) was 48 and the FAK protein expression (HepG2) was 130. The STAT5 protein expression (HepG2) was 61, the c-Abl protein expression (HepG2) was 34 and the c-Fos protein expression (HepG2) was 43. For the same compound, the “c-Src Y416-p protein expression” value (HepG2) was 16, the c-Src protein expression (HepG2) was 78 and the hnRNP-K protein expression (HepG2) was 70. The p38 protein expression (HepG2) was 51, the p53 protein expression (HepG2) was 19 and the “Significantly differentially regulated genes, downregulated (number)” value (GammaA3 [2]; SAM FDR<0.01, FC>2) was 66. For the same compound, the “Significantly differentially regulated genes, upregulated (number)” value (GammaA3 [2]; SAM FDR<0.01, FC>2) was 79, the Actg2 gene expression (GammaA3 [2]; vs control) was -1.23 log2 of fold change and the Ccl5 gene expression (GammaA3 [2]; vs control) was 3.04 log2 of fold change. For the same compound, the Cenpa gene expression (GammaA3 [2]; vs control) was 1.11 log2 of fold change, the Col1a1 gene expression (GammaA3 [2]; vs control) was -1.15 log2 of fold change and the Has2 gene expression (GammaA3 [2]; vs control) was -1.09 log2 of fold change. For the same compound, the Itga6 gene expression (GammaA3 [2]; vs control) was 1.72 log2 of fold change, the Mapk8ip1 gene expression (GammaA3 [2]; vs control) was -1.05 log2 of fold change and the Mmp3 gene expression (GammaA3 [2]; vs control) was 1.52 log2 of fold change. For the same compound, the Mmp13 gene expression (GammaA3 [2]; vs control) was 1.29 log2 of fold change, the Ngef gene expression (GammaA3 [2]; vs control) was 1.56 log2 of fold change and the Tbrg4 gene expression (GammaA3 [2]; vs control) was -1.09 log2 of fold change. For the same compound, the Ywhaz gene expression (GammaA3 [2]; vs control) was -1.04 log2 of fold change and the Zyx gene expression (GammaA3 [2]; vs control) was -1.34 log2 of fold change.

From article PMC2994747, “Molecular Characterization of c-Abl/c-Src Kinase Inhibitors Targeted against Murine Tumour Progenitor Cells that Express Stem Cell Markers” (PLoS ONE, 2010)
